“Also recorded” adds a separate entry of the source.
Tests used:
[1] = aerosolized NaHCO3; cited from earlier work
[2] = system: CuFi-1 epithelia; assay: ASL height by confocal microscopy; assay type: cell-based, human
Method: (§1) ASL height was studied using an established fluorescent dye assay (60, 61). Small diameter NuLi and CuFi-1 cultured epithelia were used for this experiment (0.33 cm^2). 24 hours prior to the start of experiment, the apical side of all cultured epithelia was rinsed three times with warm PBS to remove excess mucus. NuLi epithelia were treated with perfluorocarbon (FC-72) vehicle or 500 µM basolateral bumetanide in DMSO vehicle applied to the media, and CuFi epithelia were treated with 20 μL vehicle, 0.005, 0.5, or 50 μM AmB, or 0.5 μM C35deOAmB suspended in perfluorocarbon (FC-72, Sigma), with or without 500 μM basolateral bumetanide in DMSO vehicle applied to the media and incubated for 24 hours at 37° C. After 24 hours, 2.5 μL of a 2 mg/mL 70 kDa Texas Red-dextran conjugate (Molecular Probes) solution in PBS was added to the apical side of the epithelia, followed by 100 μL of FC-770 to prevent evaporation. Then the culture support was placed on top of 100 μL of PBS on a 10 mm glass bottom Fluorodish for imaging (World Precision Instruments). Epithelia were imaged immediately after dye addition and again at 24 hours to examine dye absorption. Three Z-stack images per membrane were taken on an Zeiss LSM700 confocal microscope at 40× oil immersion. These images were analyzed using ImageJ (62) to determine the average ASL height in the center 1300 pixels of each image. Images were smoothed, converted to 8-bit, and thresholded to most accurately represent the red area. The parameters for Analyze Particles were particles from 1-Infinity μm^2 in size and from 0%-100% circularity. Height was determined by dividing the area output in pixels by the known 1300 pixel width and converted to microns using the known scaling factor of 0.49 µm/pixel.

[3] = system: NuLi epithelia; assay: ASL height by confocal microscopy; assay type: cell-based, human; conditions: bumetanide 500 μM
Method: as §1

[4] = molecular target: V520F allele (Homo sapiens, UniProt P13569, V520F); conditions: V520F allele (D259G/V520F); cited from earlier work
V520F allele, sequence (P13569 whole entry V520F): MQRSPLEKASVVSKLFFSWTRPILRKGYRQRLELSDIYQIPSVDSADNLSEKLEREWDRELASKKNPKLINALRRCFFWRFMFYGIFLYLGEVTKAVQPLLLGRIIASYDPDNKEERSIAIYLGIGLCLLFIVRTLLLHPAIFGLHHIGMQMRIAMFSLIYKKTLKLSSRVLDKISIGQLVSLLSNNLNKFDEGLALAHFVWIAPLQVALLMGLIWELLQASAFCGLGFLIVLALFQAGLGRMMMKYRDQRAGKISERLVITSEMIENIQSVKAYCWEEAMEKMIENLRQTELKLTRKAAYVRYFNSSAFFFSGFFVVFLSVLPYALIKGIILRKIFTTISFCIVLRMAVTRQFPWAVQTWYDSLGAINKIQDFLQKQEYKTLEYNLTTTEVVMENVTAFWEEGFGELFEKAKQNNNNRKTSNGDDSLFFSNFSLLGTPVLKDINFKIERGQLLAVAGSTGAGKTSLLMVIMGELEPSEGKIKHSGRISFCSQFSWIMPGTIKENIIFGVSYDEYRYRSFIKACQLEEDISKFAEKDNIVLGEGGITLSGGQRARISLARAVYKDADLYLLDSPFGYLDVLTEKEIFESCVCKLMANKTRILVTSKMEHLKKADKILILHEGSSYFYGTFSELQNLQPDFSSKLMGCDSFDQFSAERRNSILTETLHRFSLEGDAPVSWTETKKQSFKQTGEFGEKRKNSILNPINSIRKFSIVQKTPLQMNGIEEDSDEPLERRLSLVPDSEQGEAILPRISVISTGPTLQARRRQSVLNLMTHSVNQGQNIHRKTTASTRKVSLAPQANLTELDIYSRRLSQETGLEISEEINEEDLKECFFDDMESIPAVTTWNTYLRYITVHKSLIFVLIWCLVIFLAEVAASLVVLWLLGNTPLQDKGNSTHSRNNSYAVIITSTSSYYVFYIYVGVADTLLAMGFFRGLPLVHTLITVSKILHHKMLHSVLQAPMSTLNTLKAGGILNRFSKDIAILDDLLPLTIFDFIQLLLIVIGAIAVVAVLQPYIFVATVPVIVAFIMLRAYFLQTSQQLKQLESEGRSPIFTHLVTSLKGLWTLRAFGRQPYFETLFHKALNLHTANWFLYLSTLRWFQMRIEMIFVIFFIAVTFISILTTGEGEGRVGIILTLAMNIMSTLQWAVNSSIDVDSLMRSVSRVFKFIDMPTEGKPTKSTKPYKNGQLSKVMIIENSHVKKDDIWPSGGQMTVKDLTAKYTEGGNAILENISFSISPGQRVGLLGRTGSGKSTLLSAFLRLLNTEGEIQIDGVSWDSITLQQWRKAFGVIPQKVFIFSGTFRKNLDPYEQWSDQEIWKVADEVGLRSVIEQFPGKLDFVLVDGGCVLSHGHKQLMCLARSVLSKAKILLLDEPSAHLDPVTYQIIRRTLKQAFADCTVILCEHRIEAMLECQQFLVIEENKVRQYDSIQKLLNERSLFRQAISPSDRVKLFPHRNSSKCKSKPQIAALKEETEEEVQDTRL

[5] = system: CF epithelia that lack a G551D or similar allele; conditions: cited from earlier work
[6] = system: CuFi-4 (G551D/ΔF508) epithelia; assay: Basolateral to apical H14CO3- transport; assay type: cell-based, human; conditions: AmB 2 μM, ivacaftor/forskolin 10 μM
Method: (§2) Small diameter NuLi and CuFi cultured epithelia were used for this experiment (0.33 cm^2). ^14C-labeled sodium HCO3^− was obtained as a sterile 35.7 mM aqueous solution pH 9.5 (MP Biomedicals 0117441H). All experiments were run less than 2 months post seeding. Fresh USG media was added to the basolateral side prior to experimentation. The apical membrane was treated with 20 μL of vehicle, AmB, or ivacaftor/forskolin as a suspension in perfluorocarbon-72 (Sigma Aldrich), and the cultured epithelia were incubated for 48 hours, 7 days, 14 days, or 28 days at 37° C. in a 5% C02 atmosphere. After the end of the treatment period, 5 μL of a 1.4 mM H^14CO3^− stock solution in USG media was added to the basolateral media. The cultured epithelia were then incubated at 37° C. for 10 minutes. After 10 minutes, the apical membrane of the cultured epithelia was immediately washed with 200 μL of PBS. The ASL wash and a 200 μL aliquot of the basolateral media were diluted in scintillation cocktail and analyzed via liquid scintillation counting (23).

[7] = system: CuFi-1 (ΔF508/ΔF508) epithelia; assay: Basolateral to apical H14CO3- transport; assay type: cell-based, human; conditions: for basolateral to apical H^14CO3^− transport, apical addition: over 10 minutes, AmB or C35deOAmB 2 μM, ivacaftor/forskolin 10 μM
Method: as §2

[8] = system: CuFi-4 (G551D/ΔF508) epithelia; assay: ASL pH in cultured CF airway epithelia (SNARF-dextran); assay type: cell-based, human
Method: (§3) Small diameter NuLi, CuFi, and primary cultured epithelia were used for this experiment (0.33 cm^2). The ratiometric pH indicator SNARF-conjugated dextran (Molecular Probes) was used to measure ASL pH. SNARF powder was suspended via sonication in perfluorocarbon (FC-72, Sigma) and distributed onto the apical surface. ASL pH was measured 2 hr later (3, 4, 25). SNARF was excited at 488 nm and emission was recorded at 580 nm and 640 nm using a Zeiss LSM 800 microscope at 40× water immersion for cell line cultures and a Zeiss LSM 510 microscope for primary cultures. To generate a standard curve for pH determination, SNARF was dissolved in colorless pH standards and fluorescence ratios were converted to pH.
(§4) Agents tested in this assay were first lyophilized into powder and then suspended in the appropriate volume of perfluorocarbon (FC-72, Sigma) and sonicated for 1 minute to suspend. AmBisome should not be sonicated; instead, the fine powder was suspended by vortexing.
(§5) In all experiments, ASL pH of compound-treated epithelia was measured compared the results to vehicle-treated epithelia.
(§6) For apical AmB administration, cultured airway epithelia were incubated for 30 min-48 hrs at 37° C. before measurement of ASL pH. For AmB-cholesterol complex and C35deOAmB administration, cultured airway epithelia were incubated for 48 hrs at 37° C. before measurement of ASL pH. To test the effect of […] ATPase inhibition, AmB was administered 47 hours prior to 10 mM ouabain addition, and cultured airway epithelia were incubated for an additional 1 hr at 37° C. before measurement of ASL pH. For 10 μM ivacaftor/10 μM forskolin administration, cultured airway epithelia were incubated for 2 hrs at 37° C. before measurement of ASL pH (25). For basolateral AmB administration, a 2 mM stock of AmB in DMSO was diluted 1000-fold to a final concentration of 2 μM in USG media. The basolateral media of cultured airway epithelia was replaced with the AmB-containing USG media and incubated for 48 hrs at 37° C. before measurement of ASL pH.

[9] = system: CuFi-1 (ΔF508/ΔF508) epithelia; assay: as above; assay type: cell-based, human; conditions: for ASL pH, apical addition: AmB or C35deOAmB 2 μM, ivacaftor/forskolin 10 μM, 2 h, vs vehicle
Method: as §3, §4, §5, §6

[10] = system: CF patients having at least one G551D allele; conditions: clinical trials; cited from earlier work
[11] = system: primary sinonasal epithelia from a patient with a G551D mutation; conditions: relative to untreated controls; cited from earlier work
[12] = system: yeast; conditions: cited from earlier work
[13] = system: CuFi-1 (ΔF508/ΔF508) airway epithelia; assay: Ussing chamber permeabilization of differentiated CF airway epithelia; assay type: cell-based, human; conditions: differentiated CuFi-1 epithelia
Method: A series of natural products and synthetic compounds reported previously to permeabilize liposomes, cells, and/or nasal epithelia of mice to anions (11-14) were tested using an Ussing chamber and differentiated cultures of airway epithelia derived from an immortalized airway epithelial cell line from a CF patient having the most common ΔF508/ΔF508 genotype (CuFi-1) (15). […] The capacity for AmB and C35deOAmB to transport bicarbonate across cholesterol-containing POPC liposomes was tested using an adapted ^13C NMR-based assay (18).

[14] = system: primary cultured airway epithelia derived from humans with CF; assay: ASL pH in primary cultured airway epithelia from CF donors; assay type: cell-based, human; conditions: 9 donors, 2 μM, 48 h
Method: Airway epithelial cells were obtained from human trachea and bronchi of CF and non-CF specimens obtained from the Iowa Donor Network, either as post-mortem specimens or from tissue deemed not fit for transplant. Studies were approved by the University of Iowa Institutional Review Board. After pronase enzymatic digestion, cells were seeded onto collagen-coated semi-permeable membranes (0.33-1.12 cm^2, Corning 3470 polyester, 3460 polyester, 3413 polycarbonate) and grown at an air-liquid interface (52). Airway epithelial cell cultures were analyzed after they had differentiated and at least 14 days post-seeding.
as §3, §4, §5, §6

[15] = system: protein ion channel-deficient yeast; conditions: cited from earlier work
[16] = system: ASL of primary CF epithelia; Staphylococcus aureus killed; assay: ASL antibacterial activity (S. aureus-coated gold grids); assay type: cell-based, human; conditions: 2 μM, 48 h
Method: Staphylococcus aureus-coated gold grids were used to measure antibacterial activity of airway epithelial cultures (3, 4). Small diameter primary cultured epithelia were used for this experiment (0.33 cm^2). Bacteria-coated gold TEM grids were placed onto the apical surface of airway epithelia for 1 min after 48 hours of perfluorocarbon (FC-72, Sigma), 2 μM AmB, or 2 μM C35deOAmB treatment. As controls, bacteria-coated grids were also placed in saline or AmB in FC-72 laid over saline to simulate the administration method for 1 minute. After removal, bacteria on the grids were assessed for viability using Live/Dead BacLight Bacterial Viability assay (Invitrogen). Viability was determined in 4-6 fields to determine the percentages of dead bacteria.

## O=C([O-])O.[Na+] [NaHCO3]
[1]
  duration of transient increase in pH: ~15 minutes

## CCCCNc1cc(C(=O)O)cc(S(N)(=O)=O)c1Oc1ccccc1 [bumetanide]
[2]; bumetanide 500 μM
  effect of basolateral bumetanide on AmB-mediated increase in ASL height: abolished the AmB-mediated increase in ASL height
[3]
  ASL height after basolateral bumetanide: decreased ASL height in NuLi epithelia

## CC(C)(C)c1cc(C(C)(C)C)c(NC(=O)c2c[nH]c3ccccc3c2=O)cc1O [ivacaftor]
[4]
  response to ivacaftor: refractory to treatment with ivacaftor
[5]
  benefit in CF epithelia without G551D: does not show benefit in CF epithelia that lack a G551D or similar allele
[6]
  H^14CO3^− transepithelial transport: increased the rate of bicarbonate efflux
[6]; listed as ivacaftor/forskolin
  H^14CO3^− transepithelial transport: increase H^14CO3-transepithelial transport
[7]; listed as Ivacaftor
  basolateral to apical H^14CO3^− transport, apical addition: failed to increase ASL pH or H^14CO3^− secretion
[7]; listed as ivacaftor/forskolin
  basolateral to apical H^14CO3^− transport, apical addition: did not
[8]; AmB 2 μM, ivacaftor/forskolin 10 μM
  increase in ASL pH: 0.2 unit
[8]; apical AmB 2 μM 48 h, ivacaftor/forskolin 10 μM 2 h
  ASL pH: increase ASL pH
[9]
  ASL pH, apical addition: showed no increase in ASL pH
[9]; listed as Ivacaftor
  ASL pH, apical addition: failed to increase ASL pH or H^14CO3^− secretion
[9]; listed as ivacaftor/forskolin
  ASL pH, apical addition: an increase in ASL pH was not observed
[10]
  increase in forced expiratory volume: 10%
  other clinical outcomes: substantially improved body weight, quality of life, and incidence of pulmonary exacerbation; also recorded: improved FEV1
[11]
  decrease in viscosity: about 1.5 units
  increase in ASL pH: 0.20 units

## C[C@@H]1O[C@@H](O[C@H]2C[C@@H](O)[C@]3(CO)[C@H]4[C@H](O)C[C@]5(C)[C@@H](C6=CC(=O)OC6)CC[C@]5(O)[C@@H]4CC[C@]3(O)C2)[C@H](O)[C@H](O)[C@H]1O [ouabain]
[7]; AmB 2 μM, ouabain 10 mM
  effect of basolateral ouabain on AmB-mediated increase in H^14CO3^− transport: abrogated; also recorded: abolished
[9]; AmB 2 μM 48 h, ouabain 10 mM
  effect of basolateral ouabain on AmB-mediated increase in ASL pH: abrogated; also recorded: abolished

## C35-deoxyamphotericin B [C35deOAmB]
[12]
  toxicity / fungicidal activity to yeast: still maintains potent fungicidal activity
[13]
  change in short circuit current / permeabilization of epithelia: Little or no permeabilization
[14]
  ASL pH, apical addition: did not increase ASL pH
[7]
  basolateral to apical H^14CO3^− transport, apical addition: did not; also recorded: caused no increase ASL ^14C bicarbonate; also recorded: did not raise ASL pH or increase H^14CO3^− secretion
[15]
  yeast growth rescue: failed to rescue yeast growth at any tested concentration; also recorded: did not
[16]
  ASL antibacterial activity (% of S. aureus killed after exposure to ASL): had no effect
[2]; 0.5 μM
  ASL height, apical addition: did not increase ASL height
[9]
  ASL pH, apical addition: an increase in ASL pH was not observed; also recorded: No increase in pH was observed; also recorded: did not raise ASL pH or increase H^14CO3^− secretion
